Laboratory results taken from patent US20250332300A1 (priority 2024, published 2025).
Like-named read-outs stand apart in the source and are kept apart here. One block for each molecule: values may come before it. Positions of bridges follow the written chain, without caps; N, C: chain ends. Non-standard residues stand in square brackets, D forms with d. *: point of attachment. DOTA = O=C(O)CN1CCN(CC(=O)O)CCN(CC(=O)*)CCN(CC(=O)O)CC1; Trp(5-OH) = N[C@@H](Cc1c[nH]c2ccc(O)cc12)C(=O)O; NMePhe(4-F) = CN[C@@H](Cc1ccc(F)cc1)C(=O)O; NMehPhe = CN[C@@H](CCc1ccccc1)C(=O)O; Aad = N[C@@H](CCCC(=O)O)C(=O)O; NMeDap = CN[C@@H](CN)C(=O)O; NMeC = CN[C@@H](CS)C(=O)O; NMeS = CN[C@@H](CO)C(=O)O; CproG = not defined here

Assays:
human HER4 = human HER4 (Homo sapiens, UniProt Q15303); assay: SPR selectivity over close protein homologs, HER4; type: binding; conditions: protein homolog immobilized on a CM5 chip
human EGFR = human EGFR (Homo sapiens, UniProt P00533); assay: SPR selectivity over close protein homologs, EGFR; type: binding; conditions: protein homolog immobilized on a CM5 chip
mouse HER2 (23-653) [1] = molecular target: T1, mouse HER2 (23-653) (Mus musculus, UniProt P70424); assay: TR-FRET competition assay for peptide potency, mouse HER2; type: binding; set-up: mouse HER2 (23-653) using a Cy5 labeled peptide as a probe; made in house; host or cells: mammalian cells; conditions: TR-FRET competition with Cy5 labeled peptide probe, 0.1 nM mouse HER2, 24 h incubation; read-out: moHER2 TR-FRET IC50
human HER3 = human HER3 (Homo sapiens, UniProt P21860); assay: SPR selectivity over close protein homologs, HER3; type: binding; conditions: protein homolog immobilized on a CM5 chip
mouse HER2 (23-653) [2] = molecular target: T1, mouse HER2 (23-653); assay: Surface plasmon resonance (SPR) for assessment of peptide affinity, mouse HER2; type: binding; set-up: mouse HER2 (23-653) using a Cy5 labeled peptide as a probe; made in house; conditions: SPR, mouse HER2 extracellular domain, 25° C., 1:1 binding model; read-out: moHER2-SPR-ONC KD
Description: Each protein was immobilized either onto a SA sensorchip (Cytiva, BR-1005-31) or CM5 sensorchip (Cytiva, BR-1005-30) to a density of 800-2000 RU.
Target sequence in this assay (P70424 23-653): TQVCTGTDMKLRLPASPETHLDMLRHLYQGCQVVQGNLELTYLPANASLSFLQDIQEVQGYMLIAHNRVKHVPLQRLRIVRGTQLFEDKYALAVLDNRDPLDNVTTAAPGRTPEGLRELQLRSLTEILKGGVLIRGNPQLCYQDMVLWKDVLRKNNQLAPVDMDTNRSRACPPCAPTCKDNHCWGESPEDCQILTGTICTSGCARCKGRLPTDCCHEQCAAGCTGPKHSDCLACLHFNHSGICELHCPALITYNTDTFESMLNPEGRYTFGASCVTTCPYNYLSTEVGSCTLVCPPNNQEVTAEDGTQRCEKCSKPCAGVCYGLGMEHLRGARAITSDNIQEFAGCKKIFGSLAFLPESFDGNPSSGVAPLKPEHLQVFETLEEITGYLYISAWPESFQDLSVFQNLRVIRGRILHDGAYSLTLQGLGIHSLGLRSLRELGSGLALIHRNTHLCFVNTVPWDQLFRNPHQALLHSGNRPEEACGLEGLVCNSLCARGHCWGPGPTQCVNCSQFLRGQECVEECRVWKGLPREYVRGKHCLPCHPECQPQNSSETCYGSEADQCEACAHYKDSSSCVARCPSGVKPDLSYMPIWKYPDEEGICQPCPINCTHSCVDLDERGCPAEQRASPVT

human HER2 (23-652) [3] = molecular target: T2, human HER2 (23-652) (Homo sapiens, UniProt P04626); assay: Surface plasmon resonance (SPR) for assessment of peptide affinity, human HER2; type: binding; set-up: towards human HER2 (23-652) and mouse HER2 (23-653); made in house; conditions: SPR, human HER2 extracellular domain, 25° C., 1:1 binding model; read-out: huHER2-SPR-ONC KD
In short: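 Binding kinetics fitted from sensorgrams with 280 s peptide association then 3000 s dissociation (30 uL/min), using HER2 (23-652) either directly immobilized (SA/CM5) or anti-Fc-captured; 3 M magnesium chloride used for regeneration.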

[4] = molecular target: human Herstatin (a soluble truncated HER2 protein) (Homo sapiens, UniProt P04626); assay: SPR selectivity over close protein homologs, Herstatin; type: binding; conditions: protein homolog immobilized on a CM5 chip
human HER2 (23-652) [5] = molecular target: T2, human HER2 (23-652); assay: TR-FRET competition assay for peptide potency, human HER2; type: binding; set-up: towards human HER2 (23-652) and mouse HER2 (23-653); made in house; host or cells: mammalian cells; conditions: read-out: huHER2 TR-FRET IC50
[6] = type: physicochemical
Protocol: Radio-HPLC Analytical Method: Eluent A: Water+0.1% TFA; Eluent B: ACN+0.1% TFA; Column temperature: 25° C.; Flow: 1.0 mL/min; Column: […] Gradient: hold 10% B for 1 min, from 10 to 80% B in 8 min, hold 80% B for 2 min, from 80 to 15% B in 1 min. Radio-iTLC Analytical Method: […] For Lu-177 and Ga-68, the radiotracer-spotted iTLC plates were directly read in a radio-TLC scanner after developing in a sodium citrate 0.1M (pH 4.6) mobile phase. Rf([^177Lu/^68Ga]Lu/Ga-labeled compounds)=0.0-0.5 and Rf (unchelated ^177Lu^3+/^68Ga^3+)=0.5-1.0. The initial radiochemical purity of the [^177Lu]Lu-labeled compounds was analyzed by […] and […] and the stability in solution at 24° C. was evaluated after the end of synthesis by radio-HPLC.

[7] = type: physicochemical; remark: listed apart in the source
Protocol: Radio-HPLC Analytical Method: Eluent A: Water+0.1% TFA; Eluent B: ACN+0.1% TFA; Column temperature: 25° C.; Flow: 1.0 mL/min; Column: […] Gradient: hold 10% B for 1 min, from 10 to 80% B in 8 min, hold 80% B for 2 min, from 80 to 15% B in 1 min. The initial radiochemical purity of [^68Ga]Ga-labeled compounds was analyzed by radio-HPLC and the stability in solution at 24° C. was evaluated 4 h after the end of synthesis by radio-HPLC.

[8] = molecular target: human HER2 (23-652), biotinylated, His tag, Avi tag (human) (UniProt P04626); assay: TR-FRET competition vs Cy5 peptide probe; TR-FRET competition, IC50
[9] = molecular target: mouse HER2 (23-653), biotinylated, His tag, Avi tag (mouse) (UniProt P70424); assay: SPR, HER2 on chip, 25 C
Chain of mouse HER2 (23-653), biotinylated, His tag, Avi tag (mouse) (P70424 23-653 limits assumed): as the sequence (P70424 23-653) above

Chain of human HER3 (P21860 20-1342): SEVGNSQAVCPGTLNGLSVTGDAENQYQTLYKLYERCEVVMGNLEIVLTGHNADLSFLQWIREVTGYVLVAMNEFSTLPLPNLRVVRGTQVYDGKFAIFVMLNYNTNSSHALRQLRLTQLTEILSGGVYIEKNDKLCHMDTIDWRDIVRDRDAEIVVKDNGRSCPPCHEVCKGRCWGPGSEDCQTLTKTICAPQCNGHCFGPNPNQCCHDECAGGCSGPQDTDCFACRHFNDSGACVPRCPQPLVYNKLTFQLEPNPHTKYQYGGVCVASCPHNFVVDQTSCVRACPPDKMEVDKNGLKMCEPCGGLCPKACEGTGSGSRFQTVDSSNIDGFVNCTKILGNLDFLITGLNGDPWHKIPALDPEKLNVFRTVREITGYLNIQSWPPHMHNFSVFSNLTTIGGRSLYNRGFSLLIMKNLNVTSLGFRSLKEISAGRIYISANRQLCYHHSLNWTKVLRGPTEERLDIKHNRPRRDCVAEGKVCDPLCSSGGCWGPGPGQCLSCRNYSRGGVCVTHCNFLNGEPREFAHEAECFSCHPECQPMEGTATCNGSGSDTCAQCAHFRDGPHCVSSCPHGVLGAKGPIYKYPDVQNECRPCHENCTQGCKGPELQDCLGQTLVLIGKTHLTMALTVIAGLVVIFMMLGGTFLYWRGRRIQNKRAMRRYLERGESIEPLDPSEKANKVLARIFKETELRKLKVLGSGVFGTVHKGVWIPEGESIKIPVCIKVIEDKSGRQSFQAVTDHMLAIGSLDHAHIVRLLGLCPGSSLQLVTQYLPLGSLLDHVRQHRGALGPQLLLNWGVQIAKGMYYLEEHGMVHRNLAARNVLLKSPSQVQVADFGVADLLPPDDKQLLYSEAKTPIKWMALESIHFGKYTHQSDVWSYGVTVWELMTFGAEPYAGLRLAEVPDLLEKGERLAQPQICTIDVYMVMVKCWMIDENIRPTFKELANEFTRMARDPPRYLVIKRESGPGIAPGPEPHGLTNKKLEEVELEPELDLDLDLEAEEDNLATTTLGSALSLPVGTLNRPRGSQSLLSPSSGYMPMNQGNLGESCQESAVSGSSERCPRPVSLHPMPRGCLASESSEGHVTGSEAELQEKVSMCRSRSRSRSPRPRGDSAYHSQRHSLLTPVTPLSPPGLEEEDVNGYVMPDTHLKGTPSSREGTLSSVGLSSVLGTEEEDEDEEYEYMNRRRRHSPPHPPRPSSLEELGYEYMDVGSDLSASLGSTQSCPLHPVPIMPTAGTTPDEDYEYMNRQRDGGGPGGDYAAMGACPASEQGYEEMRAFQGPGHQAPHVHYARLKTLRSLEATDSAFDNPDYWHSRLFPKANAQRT
Chain of human EGFR (P00533 25-1210): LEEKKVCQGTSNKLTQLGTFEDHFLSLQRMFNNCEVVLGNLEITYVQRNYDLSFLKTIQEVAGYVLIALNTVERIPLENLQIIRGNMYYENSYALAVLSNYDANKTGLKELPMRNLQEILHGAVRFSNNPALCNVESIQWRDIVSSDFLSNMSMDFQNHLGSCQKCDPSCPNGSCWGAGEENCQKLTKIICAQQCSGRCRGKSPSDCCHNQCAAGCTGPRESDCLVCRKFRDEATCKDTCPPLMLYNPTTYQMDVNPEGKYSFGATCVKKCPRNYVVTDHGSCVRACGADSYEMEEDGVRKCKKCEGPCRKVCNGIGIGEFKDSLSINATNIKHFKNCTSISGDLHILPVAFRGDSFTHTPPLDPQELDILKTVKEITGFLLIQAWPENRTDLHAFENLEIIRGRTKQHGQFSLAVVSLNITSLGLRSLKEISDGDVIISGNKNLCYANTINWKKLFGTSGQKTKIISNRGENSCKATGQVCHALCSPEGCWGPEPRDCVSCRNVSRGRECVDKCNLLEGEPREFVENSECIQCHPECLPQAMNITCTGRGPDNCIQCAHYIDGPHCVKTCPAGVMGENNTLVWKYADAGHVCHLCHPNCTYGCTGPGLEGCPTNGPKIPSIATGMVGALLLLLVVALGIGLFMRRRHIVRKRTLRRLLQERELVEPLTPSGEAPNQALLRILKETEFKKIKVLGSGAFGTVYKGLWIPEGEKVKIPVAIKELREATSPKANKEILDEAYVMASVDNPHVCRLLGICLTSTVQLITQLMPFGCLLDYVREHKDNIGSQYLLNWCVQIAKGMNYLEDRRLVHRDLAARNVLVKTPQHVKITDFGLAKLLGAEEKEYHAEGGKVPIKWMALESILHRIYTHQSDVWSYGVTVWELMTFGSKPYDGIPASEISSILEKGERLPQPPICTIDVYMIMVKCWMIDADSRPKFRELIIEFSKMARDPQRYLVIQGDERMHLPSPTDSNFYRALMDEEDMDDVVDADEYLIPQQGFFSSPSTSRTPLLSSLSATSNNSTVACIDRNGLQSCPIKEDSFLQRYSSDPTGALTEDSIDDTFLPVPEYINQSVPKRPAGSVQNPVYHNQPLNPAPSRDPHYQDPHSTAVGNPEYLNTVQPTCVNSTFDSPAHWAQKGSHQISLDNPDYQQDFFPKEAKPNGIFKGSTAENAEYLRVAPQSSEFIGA
Chain of human HER4 (Q15303 26-1308): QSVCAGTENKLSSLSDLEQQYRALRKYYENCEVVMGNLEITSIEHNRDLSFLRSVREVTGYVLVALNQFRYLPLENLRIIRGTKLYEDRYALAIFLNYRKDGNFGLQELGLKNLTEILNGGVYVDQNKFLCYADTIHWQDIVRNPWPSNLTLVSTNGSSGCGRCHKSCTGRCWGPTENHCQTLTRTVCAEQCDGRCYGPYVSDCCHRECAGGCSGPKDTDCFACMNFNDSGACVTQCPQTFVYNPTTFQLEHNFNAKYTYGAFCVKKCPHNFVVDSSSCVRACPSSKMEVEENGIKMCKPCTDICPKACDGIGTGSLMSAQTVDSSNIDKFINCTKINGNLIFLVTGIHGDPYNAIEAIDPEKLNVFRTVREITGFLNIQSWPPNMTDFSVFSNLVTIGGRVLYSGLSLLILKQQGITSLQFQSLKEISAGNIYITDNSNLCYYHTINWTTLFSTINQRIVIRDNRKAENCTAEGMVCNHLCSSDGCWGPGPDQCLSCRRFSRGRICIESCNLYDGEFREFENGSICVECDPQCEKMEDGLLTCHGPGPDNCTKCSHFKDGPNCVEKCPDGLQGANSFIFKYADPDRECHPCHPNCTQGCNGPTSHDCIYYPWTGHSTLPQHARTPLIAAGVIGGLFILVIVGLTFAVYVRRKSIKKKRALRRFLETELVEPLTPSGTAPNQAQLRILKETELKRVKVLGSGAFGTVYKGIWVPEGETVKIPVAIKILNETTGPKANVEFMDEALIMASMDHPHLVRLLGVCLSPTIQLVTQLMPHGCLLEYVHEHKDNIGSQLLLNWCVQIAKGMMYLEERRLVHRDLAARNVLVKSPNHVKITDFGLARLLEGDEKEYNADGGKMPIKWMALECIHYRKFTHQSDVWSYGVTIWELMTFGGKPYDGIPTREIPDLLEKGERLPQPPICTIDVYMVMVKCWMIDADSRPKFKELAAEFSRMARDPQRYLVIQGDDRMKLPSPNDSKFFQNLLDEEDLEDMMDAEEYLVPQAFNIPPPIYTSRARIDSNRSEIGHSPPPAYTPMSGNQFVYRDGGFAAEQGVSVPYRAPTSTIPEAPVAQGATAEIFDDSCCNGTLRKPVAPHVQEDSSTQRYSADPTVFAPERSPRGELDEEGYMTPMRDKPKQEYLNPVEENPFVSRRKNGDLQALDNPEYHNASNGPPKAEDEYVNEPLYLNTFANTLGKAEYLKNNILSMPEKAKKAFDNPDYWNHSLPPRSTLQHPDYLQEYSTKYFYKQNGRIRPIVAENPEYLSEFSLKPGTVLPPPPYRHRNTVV

Molecule: CC(=O)NCCCC[C@H]1C(=O)N[C@@H](Cc2c[nH]c3ccc(O)cc23)C(=O)N[C@@H](Cc2c[nH]c3ccccc23)C(=O)N[C@@H](C2CC2)C(=O)N(C)[C@H](C(=O)N(C)[C@@H](Cc2ccc(F)cc2)C(=O)N[C@@H](CCCCNC(=O)CN2CCN(CC(=O)O)CCN(CC(=O)O)CCN(CC(=O)O)CC2)C(N)=O)CNC(=O)CCC[C@H](NC(C)=O)C(=O)N[C@@H](Cc2ccc(O)cc2)C(=O)N[C@@H](CO)C(=O)N(C)[C@@H](CCc2ccccc2)C(=O)N1C [Example B1]
- Kd (human HER4): > 6 µM
- Kd (human EGFR): > 6 µM
- IC50 (mouse HER2 (23-653) [1]): < 0.0001 µM
- Kd (human HER3): > 6 µM
- Kd (mouse HER2 (23-653) [2]): < 0.0001 µM
- Kd (human HER2 (23-652) [3]): < 0.0001 µM
- Kd [4]: > 6 µM
- IC50 (human HER2 (23-652) [5]): < 0.0001 µM

Molecule: COCCOCCOCCOCCOCCOCCOCCOCCOCCOCCOCCOCCC(=O)N[C@H]1CCCC(=O)NC[C@@H](C(=O)N(C)[C@@H](Cc2ccc(F)cc2)C(=O)N[C@@H](CCCCNC(=O)CN2CCN(CC(=O)O)CCN(CC(=O)O)CCN(CC(=O)O)CC2)C(N)=O)N(C)C(=O)[C@H](C2CC2)NC(=O)[C@H](Cc2c[nH]c3ccccc23)NC(=O)[C@H](Cc2c[nH]c3ccc(O)cc23)NC(=O)[C@H](CCCCNC(C)=O)N(C)C(=O)[C@H](CCc2ccccc2)N(C)C(=O)[C@H](CO)NC(=O)[C@H](Cc2ccc(O)cc2)NC1=O [Example B2]
- Kd (human HER4): > 6 µM
- Kd (human EGFR): > 6 µM
- IC50 (mouse HER2 (23-653) [1]): 0.0002 µM
- Kd (human HER3): > 6 µM
- Kd (mouse HER2 (23-653) [2]): 0.0001 µM
- Kd (human HER2 (23-652) [3]): < 0.0001 µM
- Kd [4]: > 6 µM
- IC50 (human HER2 (23-652) [5]): < 0.0001 µM

Molecule: CC(=O)NCCCC[C@H]1C(=O)N[C@@H](Cc2c[nH]c3ccc(O)cc23)C(=O)N[C@@H](Cc2c[nH]c3ccccc23)C(=O)N[C@@H](C2CC2)C(=O)N(C)[C@H](C(=O)N(C)[C@@H](Cc2ccc(F)cc2)C(=O)N[C@@H](CCCCNC(=O)CN2CCN(CC(=O)O)CCN(CC(=O)O)CCN(CC(=O)O)CC2)C(N)=O)CNC(=O)CCC[C@H](NC(C)=O)C(=O)N[C@H](Cc2ccc(O)cc2)C(=O)N[C@H](CO)C(=O)N(C)[C@@H](CCc2ccccc2)C(=O)N1C [Example B4]
- Kd (human HER4): > 6 µM
- Kd (human EGFR): > 6 µM
- IC50 (mouse HER2 (23-653) [1]): > 1 µM
- Kd (human HER3): > 6 µM
- Kd (mouse HER2 (23-653) [2]): > 6 µM
- Kd (human HER2 (23-652) [3]): > 6 µM
- Kd [4]: > 6 µM
- IC50 (human HER2 (23-652) [5]): > 1 µM

Molecule: CC(=O)NCCCC[C@H]1C(=O)N[C@@H](Cc2c[nH]c3ccc(O)cc23)C(=O)N[C@@H](Cc2c[nH]c3ccccc23)C(=O)N[C@@H](C2CC2)C(=O)N(C)[C@H](C(=O)N(C)[C@@H](Cc2ccc(F)cc2)C(=O)N[C@@H](CCCCNC(=O)CN2CCN(CC(=O)O)CCN(CC(=O)O)CCN(CC(=O)O)CC2)C(N)=O)CNC(=O)CCC[C@H](NC(C)=O)C(=O)N[C@H](Cc2ccc(O)cc2)C(=O)N[C@H](CO)C(=O)N(C)[C@@H](CCc2ccccc2)C(=O)N1C [Example H4, Example B4 labelled with ^177Lu, metal not drawn]
- Radiochemical purity by radio-HPLC, stability in solution, 5 h (%) [6]: 98.6%
- Radiochemical purity by radio-HPLC, stability in solution, 24 h (%) [6]: 98.2%
- Radiochemical purity by radio-HPLC, stability in solution, 48 h (%) [6]: 97.6%
- Radiochemical purity by radio-HPLC, stability in solution, 72 h (%) [6]: 97.8%

Molecule: COCCOCCOCCOCCOCCOCCOCCOCCOCCOCCOCCOCCC(=O)N[C@H]1CCCC(=O)NC[C@@H](C(=O)N(C)[C@@H](Cc2ccc(F)cc2)C(=O)N[C@@H](CCCCNC(=O)CN2CCN(CC(=O)O)CCN(CC(=O)O)CCN(CC(=O)O)CC2)C(N)=O)N(C)C(=O)[C@H](C2CC2)NC(=O)[C@H](Cc2c[nH]c3ccccc23)NC(=O)[C@H](Cc2c[nH]c3ccc(O)cc23)NC(=O)[C@H](CCCCNC(C)=O)N(C)C(=O)[C@H](CCc2ccccc2)N(C)C(=O)[C@H](CO)NC(=O)[C@H](Cc2ccc(O)cc2)NC1=O [Example I1, Example B2 labelled with ^68Ga, metal not drawn]
- Radiochemical purity by radio-HPLC, stability in solution, 4 h [7]: 97.2%

Molecule: CC(=O)NCCCC[C@H]1C(=O)N[C@@H](Cc2c[nH]c3ccc(O)cc23)C(=O)N[C@@H](Cc2c[nH]c3ccccc23)C(=O)N[C@@H](C2CC2)C(=O)N(C)[C@H](C(=O)N(C)[C@@H](Cc2ccc(F)cc2)C(=O)N[C@@H](CCCCNC(=O)CN2CCN(CC(=O)O)CCN(CC(=O)O)CCN(CC(=O)O)CC2)C(N)=O)CNC(=O)CCC[C@H](NC(C)=O)C(=O)N[C@@H](Cc2ccc(O)cc2)C(=O)N[C@@H](CO)C(=O)N(C)[C@@H](CCc2ccccc2)C(=O)N1C [Example I2, Example B1 labelled with ^68Ga, metal not drawn]
- Radiochemical purity by radio-HPLC, stability in solution, 4 h [7]: 97.2%

Molecule: (4R,7S,10S,13S,16S,19S,22S,25S,28R)-10-((1H-indol-3-yl)methyl)-28-amino-N—((S)-1-amino-3-(4-fluorophenyl)-1-oxopropan-2-yl)-7-cyclopropyl-13-((5-hydroxy-1H-indol-3-yl)methyl)-25-(4-hydroxybenzyl)-16,22-bis(hydroxymethyl)-N,5,17,20-tetramethyl-6,9,12,15,18,21,24,27-octaoxo-19-phenethyl-1,2-dithia-5,8,11,14,17,20,23,26-octaazacyclononacosane-4-carboxamide TFA salt
- ring closure, yield after HPLC (disulfide bond, 29-membered ring, DMSO (air), DMSO/water 1/4, 1.88 mM, […]): 26%

Molecule: ((S)-2-((3S,6S,9S,12S,15S,18S,21S,24S,27S)-9-((1H-indol-3-yl)methyl)-27-acetamido-15-(4-acetamidobutyl)-6-cyclopropyl-12-((5-hydroxy-1H-indol-3-yl)methyl)-24-(4-hydroxybenzyl)-21-(hydroxymethyl)-N,4,16,19-tetramethyl-5,8,11,14,17,20,23,26,31-nonaoxo-18-phenethyl-1,4,7,10,13,16,19,22,25-nonaazacyclohentriacontane-3-carboxamido)-3-(4-fluorophenyl) propanoyl)-L-lysine TFA Salt
- ring closure, yield after HPLC (amide bond, 31-membered ring, HATU/DIEA, DMF, resin, 10.0 mM, with chain assembly): 2.4%

Molecule: Ac-hGlu-Tyr-Ser-MehPhe-MeLys(COCH2OH)-Trp(5-OH)-Trp-Gly(cPr)-MeDap-MePhe(4-F)-Lys(Alloc)-NH2?
- ring closure, yield after HPLC (the molecule shown is the open-chain precursor, amide bond, 31-membered ring, PyAOP/DIEA, then Pd(PPh3)4/PhSiH3, DMF, 5.0 mM, with chain assembly): 10.3%

Molecule: Fmoc-hGlu-Tyr-Ser-MehPhe-MeLys(Ac)-Trp(5-OH)-Trp-Gly(cPr)-MeDap-MePhe(4-F)-Lys(N3)-NH2?
- ring closure, yield after HPLC (the molecule shown is the open-chain precursor, amide bond, 31-membered ring, HATU/2,6-lutidine, DMF/DCM 1:10, 0.76 mM): 64%

Molecule: HOOC(CH2)4CO-Tyr-Ser-MehPhe-MeLys(Ac)-Trp(5-OH)-Trp-Gly(cPr)-MeDap-MePhe(4-F)-Lys(Boc)-NH2?
- ring closure, yield after HPLC (the molecule shown is the open-chain precursor, amide bond, 31-membered ring, PyAOP/Et3N, DCM, 0.52 mM): 51%

- IC50 [8]: 9.81 µM
Molecule: Ac-[Aad]YS[NMehPhe][MeKAc][Trp(5-OH)]A[CproG][NMeDap][NMePhe(4-F)]K(DOTA)-NH2 (lactam 1-9; reading uncertain; also: DOTA complexed with 175Lu) [Example C32]

- Kd [9]: 5.3 µM
Molecule: H-CYS[NMehPhe][NMeS][Trp(5-OH)]W[cProG][NMeC][NMePhe(4-F)]-NH2 (disulfide 1-9) [Example A54]
